# Assay results taken from PubChem BioAssay (NCI).
#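 Tested at 5 concentrations; 48 h exposure; 96-well plates; endpoints linearly interpolated, else capped at highest concentration. GI50: concentration for 50% inhibition of growth. TGI: concentration producing complete growth inhibition.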
# How the values were obtained:
# Experiment in all cases: inhibition of tumour cell growth, NCI panel, 48 h
# [1] = tested on: A498 renal
# [2] = tested on: 786-0 renal
# [3] = tested on: A549 NSCLC
# [4] = tested on: OVCAR-8 ovarian
# [5] = tested on: OVCAR-5 ovarian
# [6] = tested on: SNB-19 CNS
# [7] = tested on: SK-OV-3 ovarian
# [8] = tested on: SR leukemia
# [9] = tested on: IGROV1 ovarian
# [10] = tested on: OVCAR-3 ovarian
# [11] = tested on: LOX IMVI melanoma
# [12] = tested on: UACC-62 melanoma
# [13] = tested on: RXF 393 renal
# [14] = tested on: BT-549 breast
# [15] = tested on: HOP-92 NSCLC
# [16] = tested on: SN12C renal
# [17] = tested on: HCC-2998 colon
# [18] = tested on: MOLT-4 leukemia
# [19] = tested on: ACHN renal
# [20] = tested on: SF-539 CNS
# [21] = tested on: EKVX NSCLC
# [22] = tested on: UACC-257 melanoma
# [23] = tested on: HCT-15 colon
# [24] = tested on: CCRF-CEM leukemia
# [25] = tested on: SNB-75 CNS
# [26] = tested on: UO-31 renal
# [27] = tested on: HCT-116 colon
# [28] = tested on: KM12 colon
# [29] = tested on: TK-10 renal
# [30] = tested on: HT29 colon
# [31] = tested on: NCI-H460 lung
# [32] = tested on: NCI-H23 lung
# [33] = tested on: PC-3 prostate
# [34] = tested on: SW-620 colon
# [35] = tested on: COLO 205 colon
# [36] = tested on: T-47D breast
# [37] = tested on: SF-295 CNS
# [38] = tested on: CAKI-1 renal
# [39] = tested on: SK-MEL-5 melanoma
# [40] = tested on: OVCAR-4 ovarian
# [41] = tested on: NCI-H226 lung
# [42] = tested on: K-562 leukemia
# [43] = tested on: DU-145 prostate
# [44] = tested on: HOP-62 NSCLC
# [45] = tested on: MCF7 breast
# [46] = tested on: MDA-MB-231 breast
# [47] = tested on: M14 melanoma
# [48] = tested on: RPMI-8226 leukemia
# [49] = tested on: NCI-H522 lung
# [50] = tested on: SK-MEL-28 melanoma
# [51] = tested on: SK-MEL-2 melanoma
# [52] = tested on: MDA-MB-435
# [53] = tested on: U251 CNS
# [54] = tested on: MALME-3M melanoma
# [55] = tested on: HS 578T breast
# [56] = tested on: SF-268 CNS
# [57] = tested on: NCI/ADR-RES ovarian
# [58] = tested on: HL-60(TB) leukemia
smiles,measurement,setting,value
C=C(CNCCc1ccc(O)cc1)[C@@H]1CC[C@]2(CO)CC[C@]3(C)[C@H](CC[C@@H]4[C@@]5(C)CCC(=O)C(C)(C)[C@@H]5CC[C@]43C)[C@@H]12,GI50,[1],1380 nM
same,TGI,[1],2770 nM
same,GI50,[2],1600 nM
same,TGI,[2],2950 nM
same,GI50,[3],1630 nM
same,TGI,[3],2990 nM
same,GI50,[4],1730 nM
same,TGI,[4],3160 nM
same,GI50,[5],1590 nM
same,TGI,[5],3000 nM
same,GI50,[6],1620 nM
same,TGI,[6],3020 nM
same,GI50,[7],1790 nM
same,TGI,[7],3510 nM
same,GI50,[8],1300 nM
same,TGI,[8],4170 nM
same,GI50,[9],1680 nM
same,TGI,[9],3300 nM
same,GI50,[10],1670 nM
same,TGI,[10],3080 nM
same,GI50,[11],1600 nM
same,TGI,[11],2970 nM
same,GI50,[12],1690 nM
same,TGI,[12],3090 nM
same,GI50,[13],1280 nM
same,TGI,[13],2590 nM
same,GI50,[14],1710 nM
same,TGI,[14],3290 nM
same,GI50,[15],1010 nM
same,TGI,[15],2260 nM
same,GI50,[16],1650 nM
same,TGI,[16],3120 nM
same,GI50,[17],1640 nM
same,TGI,[17],3060 nM
same,GI50,[18],1960 nM
same,TGI,[18],4470 nM
same,GI50,[19],1610 nM
same,TGI,[19],2960 nM
same,GI50,[20],1750 nM
same,TGI,[20],3170 nM
same,GI50,[21],1700 nM
same,TGI,[21],3240 nM
same,GI50,[22],1780 nM
same,TGI,[22],3260 nM
same,GI50,[23],1470 nM
same,TGI,[23],2890 nM
same,GI50,[24],1920 nM
same,TGI,[24],5260 nM
same,GI50,[25],1370 nM
same,TGI,[25],2740 nM
same,GI50,[26],1300 nM
same,TGI,[26],2580 nM
same,GI50,[27],1670 nM
same,TGI,[27],3030 nM
same,GI50,[28],1820 nM
same,TGI,[28],3610 nM
same,GI50,[29],1730 nM
same,TGI,[29],3190 nM
same,GI50,[30],1620 nM
same,TGI,[30],3080 nM
same,GI50,[31],1660 nM
same,TGI,[31],3280 nM
same,GI50,[32],1690 nM
same,TGI,[32],3260 nM
same,GI50,[33],1320 nM
same,TGI,[33],2690 nM
same,GI50,[34],1770 nM
same,TGI,[34],3760 nM
same,GI50,[35],1730 nM
same,TGI,[35],3320 nM
same,GI50,[36],1720 nM
same,TGI,[36],4000 nM
same,GI50,[37],1740 nM
same,TGI,[37],3220 nM
same,GI50,[38],1570 nM
same,TGI,[38],2960 nM
same,GI50,[39],1630 nM
same,TGI,[39],2990 nM
same,GI50,[40],1650 nM
same,TGI,[40],3120 nM
same,GI50,[41],1620 nM
same,TGI,[41],3640 nM
same,GI50,[42],1860 nM
same,TGI,[42],4720 nM
same,GI50,[43],1770 nM
same,TGI,[43],3150 nM
same,GI50,[44],1580 nM
same,TGI,[44],3110 nM
same,GI50,[45],1870 nM
same,TGI,[45],3840 nM
same,GI50,[46],1760 nM
same,TGI,[46],3200 nM
same,GI50,[47],1720 nM
same,TGI,[47],3240 nM
same,GI50,[48],1790 nM
same,TGI,[48],4450 nM
same,GI50,[49],1690 nM
same,TGI,[49],3230 nM
same,GI50,[50],1700 nM
same,TGI,[50],3140 nM
same,GI50,[51],1750 nM
same,TGI,[51],3270 nM
same,GI50,[52],1740 nM
same,TGI,[52],3220 nM
same,GI50,[53],1560 nM
same,TGI,[53],2920 nM
same,GI50,[54],1650 nM
same,TGI,[54],3250 nM
COC1(OC)N=C(N)C2(C#N)C(C)CC(=O)N(N(C)C)C12C#N (configuration not stated),TGI,[1],> 100000 nM
same,TGI,[2],> 100000 nM
same,TGI,[3],> 100000 nM
same,TGI,[4],> 100000 nM
same,TGI,[55],> 100000 nM
same,TGI,[5],> 100000 nM
same,TGI,[6],> 100000 nM
same,TGI,[7],> 100000 nM
same,TGI,[8],> 100000 nM
same,TGI,[9],> 100000 nM
same,TGI,[11],> 100000 nM
same,TGI,[12],> 100000 nM
same,TGI,[13],> 100000 nM
same,TGI,[15],> 100000 nM
same,TGI,[16],> 100000 nM
same,TGI,[17],> 100000 nM
same,TGI,[18],> 100000 nM
same,TGI,[19],> 100000 nM
same,TGI,[20],> 100000 nM
same,TGI,[21],> 100000 nM
same,TGI,[22],> 100000 nM
same,TGI,[23],> 100000 nM
same,TGI,[24],> 100000 nM
same,TGI,[25],> 100000 nM
same,TGI,[26],> 100000 nM
same,TGI,[27],> 100000 nM
same,TGI,[28],> 100000 nM
same,TGI,[29],> 100000 nM
same,TGI,[30],> 100000 nM
same,TGI,[32],> 100000 nM
same,TGI,[33],> 100000 nM
same,TGI,[34],> 100000 nM
same,TGI,[35],> 100000 nM
same,TGI,[36],> 100000 nM
same,TGI,[56],> 100000 nM
same,TGI,[37],> 100000 nM
same,TGI,[38],> 100000 nM
same,TGI,[39],> 100000 nM
same,TGI,[57],> 100000 nM
same,TGI,[58],> 100000 nM
same,TGI,[41],> 100000 nM
same,TGI,[42],> 100000 nM
same,TGI,[43],> 100000 nM
same,TGI,[44],> 100000 nM
same,TGI,[45],> 100000 nM
same,TGI,[46],> 100000 nM
same,TGI,[47],> 100000 nM
same,TGI,[48],> 100000 nM
same,TGI,[49],> 100000 nM
same,TGI,[50],> 100000 nM
same,TGI,[51],> 100000 nM
same,TGI,[52],> 100000 nM
same,TGI,[53],> 100000 nM
same,TGI,[54],> 100000 nM
